The results in this text go back to ChEMBL document CHEMBL5212743, “Selectivity Literature for EUbOPEN Chemogenomics Library wave 3” (2023).

By IC50 is commonly meant the midpoint of a concentration-inhibition curve. Broadly, the Kd is the equilibrium constant for the complex coming apart.

The target in assay [1] is Serine/threonine-protein kinase PLK2 (Homo sapiens) (UniProt Q9NYY3). As to the kind of experiment: Selectivity interaction (KinomeScan (DiscoverX)) EUB0000702a PLK2. The settings on record: at 1 µM.
For assay [2], the target named is Serine/threonine-protein kinase PLK1 (Homo sapiens, UniProt P53350). As to the kind of experiment: Selectivity interaction (KinomeScan (DiscoverX)) EUB0000702a PLK1. The settings on record: at 1 µM.
Assay [3] has as its target High affinity nerve growth factor receptor (Homo sapiens, UniProt P04629). The assay can be described thus: Selectivity interaction (KinomeScan (DiscoverX)) EUB0000702a NTRK1. The settings on record: at 1 µM.
Assay [4] concerns the target NUAK family SNF1-like kinase 2 (Homo sapiens) (UniProt Q9H093). As to the kind of experiment: Selectivity interaction (KinomeScan (DiscoverX)) EUB0000702a NUAK2. The conditions noted are these: at 1 µM.
The target in assay [5] is Cyclin-dependent kinase 7 (Homo sapiens) (UniProt P50613). As to the kind of experiment: Selectivity interaction (KinomeScan (DiscoverX)) EUB0000702a CDK7. The settings on record: at 1 µM.
A further assay has as its target Aurora kinase B (Homo sapiens, UniProt Q96GD4). As to the kind of experiment: Selectivity interaction (Enzymatic assay) EUB0000178b AURKB.
Assay [6] addresses Aurora kinase A (Homo sapiens) (UniProt O14965). The assay can be described thus: Selectivity interaction (KinomeScan (DiscoverX)) EUB0000178b STK6. The conditions noted are these: at 1 µM.
The target of assay [7] is NT-3 growth factor receptor (Homo sapiens, UniProt Q16288). The settings on record: at 1 µM.
Assay [8] concerns the target Tyrosine-protein kinase Lck (Homo sapiens, UniProt P06239). The conditions noted are these: at 1 µM.
The target in assay [9] is Receptor-type tyrosine-protein kinase FLT3 (Homo sapiens) (UniProt P36888). The conditions noted are these: at 1 µM.
Assay [10] deals with Tyrosine-protein kinase FRK (Homo sapiens, UniProt P42685). The settings on record: at 1 µM.
Assay [11] addresses Serine/threonine-protein kinase 17A (Homo sapiens, UniProt Q9UEE5). The assay can be described thus: Selectivity interaction (KinomeScan (DiscoverX, competition-binding assay)) EUB0000305b STK17A.
For assay [12], the target named is Mitogen-activated protein kinase kinase kinase 19 (Homo sapiens, UniProt Q56UN5). As to the kind of experiment: Selectivity interaction (KinomeScan (DiscoverX, competition-binding assay)) EUB0000305b MAP3K19.
Assay [13] concerns the target Mitogen-activated protein kinase kinase kinase 1 (Homo sapiens) (UniProt Q13233). The assay can be described thus: Selectivity interaction (KinomeScan (DiscoverX)) EUB0000698a MAP3K1. The conditions noted are these: at 10 µM.
Assay [14] addresses Serine/threonine-protein kinase 10 (Homo sapiens) (UniProt O94804). The assay can be described thus: Selectivity interaction (KinomeScan (DiscoverX)) EUB0000698a STK10. The conditions noted are these: at 10 µM.
Assay [15] concerns the target Platelet-derived growth factor receptor beta (Homo sapiens, UniProt P09619). The assay can be described thus: Selectivity interaction (KinomeScan (DiscoverX)) EUB0000698a PDGFRB. The conditions noted are these: at 10 µM.
Assay [16] deals with Serine/threonine-protein kinase RIO1 (Homo sapiens) (UniProt Q9BRS2). The assay can be described thus: Selectivity interaction (KinomeScan (DiscoverX)) EUB0000698a RIOK1. The conditions noted are these: at 10 µM.
Assay [17] addresses STE20-like serine/threonine-protein kinase (Homo sapiens, UniProt Q9H2G2). The assay can be described thus: Selectivity interaction (KinomeScan (DiscoverX)) EUB0000698a SLK. The settings on record: at 10 µM.
Assay [18] addresses T1, Alpha-1A adrenergic receptor (Homo sapiens) (UniProt P35348).
T1 sequence (whole entry): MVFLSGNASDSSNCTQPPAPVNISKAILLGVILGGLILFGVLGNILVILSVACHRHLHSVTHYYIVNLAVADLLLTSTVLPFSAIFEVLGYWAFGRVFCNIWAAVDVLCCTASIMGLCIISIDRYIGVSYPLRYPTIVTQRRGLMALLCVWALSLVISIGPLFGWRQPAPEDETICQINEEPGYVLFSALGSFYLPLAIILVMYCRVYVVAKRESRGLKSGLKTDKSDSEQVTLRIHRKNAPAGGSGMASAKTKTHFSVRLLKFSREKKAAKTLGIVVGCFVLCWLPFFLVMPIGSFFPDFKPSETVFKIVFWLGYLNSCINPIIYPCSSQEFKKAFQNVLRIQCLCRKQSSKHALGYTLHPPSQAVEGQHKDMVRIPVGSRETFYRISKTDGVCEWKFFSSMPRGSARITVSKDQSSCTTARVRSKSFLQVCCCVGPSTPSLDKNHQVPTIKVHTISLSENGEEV
The assay can be described thus: Selectivity interaction (SafetyScreen44™ (Eurofins, panel of GPCRS, ion channels, transporters) ) EUB0000169b ADRA1A. The conditions noted are these: at 10 µM.

Assay [19] has as its target Casein kinase I isoform alpha (Homo sapiens) (UniProt P48729). The settings on record: at 10 µM.
In assay [20] the target is Mitogen-activated protein kinase 14 (Homo sapiens, UniProt Q16539). The conditions noted are these: at 10 µM.
The target of assay [21] is Serine/threonine-protein kinase PLK3 (Homo sapiens, UniProt Q9H4B4). The assay can be described thus: Selectivity interaction (KinomeScan (DiscoverX)) EUB0000169b PLK3. The settings on record: at 1 µM.
The target of assay [22] is Calcium/calmodulin-dependent protein kinase kinase 1 (Homo sapiens) (UniProt Q8N5S9). The assay can be described thus: Selectivity interaction (KinomeScan (DiscoverX)) EUB0000169b CAMKK1. The settings on record: at 1 µM.
The target of assay [23] is Ribosomal protein S6 kinase alpha-1 (Homo sapiens) (UniProt Q15418). The conditions noted are these: at 10 µM.

SMILES strings stand for the structures.

Sequence of Tyrosine-protein kinase Lck (P06239 whole entry, looked up): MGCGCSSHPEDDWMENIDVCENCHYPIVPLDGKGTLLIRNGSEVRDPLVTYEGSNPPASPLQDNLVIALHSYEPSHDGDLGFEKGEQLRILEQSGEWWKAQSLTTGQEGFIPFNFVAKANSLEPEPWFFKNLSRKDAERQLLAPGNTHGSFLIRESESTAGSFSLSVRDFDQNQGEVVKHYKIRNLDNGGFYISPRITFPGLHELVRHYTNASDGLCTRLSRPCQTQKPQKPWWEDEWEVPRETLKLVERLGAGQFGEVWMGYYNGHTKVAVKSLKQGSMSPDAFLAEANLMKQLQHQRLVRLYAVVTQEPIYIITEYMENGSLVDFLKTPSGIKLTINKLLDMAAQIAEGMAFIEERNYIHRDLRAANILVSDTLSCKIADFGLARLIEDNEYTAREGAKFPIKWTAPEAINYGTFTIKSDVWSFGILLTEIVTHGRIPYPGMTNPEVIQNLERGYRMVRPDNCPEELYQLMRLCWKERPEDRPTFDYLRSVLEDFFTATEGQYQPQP
Sequence of Aurora kinase A (Homo sapiens) (O14965 whole entry): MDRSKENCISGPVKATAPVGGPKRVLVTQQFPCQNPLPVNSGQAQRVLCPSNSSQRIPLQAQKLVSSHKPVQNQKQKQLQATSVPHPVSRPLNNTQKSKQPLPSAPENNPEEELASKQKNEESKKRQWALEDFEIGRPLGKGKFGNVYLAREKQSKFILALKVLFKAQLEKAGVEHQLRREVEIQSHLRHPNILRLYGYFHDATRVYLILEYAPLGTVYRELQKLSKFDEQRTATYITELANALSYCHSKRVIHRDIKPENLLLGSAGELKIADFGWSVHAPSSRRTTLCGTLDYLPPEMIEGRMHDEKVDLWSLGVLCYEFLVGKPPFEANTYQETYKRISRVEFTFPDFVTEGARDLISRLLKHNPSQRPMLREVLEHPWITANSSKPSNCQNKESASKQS
Sequence of STE20-like serine/threonine-protein kinase (Q9H2G2 whole entry, looked up): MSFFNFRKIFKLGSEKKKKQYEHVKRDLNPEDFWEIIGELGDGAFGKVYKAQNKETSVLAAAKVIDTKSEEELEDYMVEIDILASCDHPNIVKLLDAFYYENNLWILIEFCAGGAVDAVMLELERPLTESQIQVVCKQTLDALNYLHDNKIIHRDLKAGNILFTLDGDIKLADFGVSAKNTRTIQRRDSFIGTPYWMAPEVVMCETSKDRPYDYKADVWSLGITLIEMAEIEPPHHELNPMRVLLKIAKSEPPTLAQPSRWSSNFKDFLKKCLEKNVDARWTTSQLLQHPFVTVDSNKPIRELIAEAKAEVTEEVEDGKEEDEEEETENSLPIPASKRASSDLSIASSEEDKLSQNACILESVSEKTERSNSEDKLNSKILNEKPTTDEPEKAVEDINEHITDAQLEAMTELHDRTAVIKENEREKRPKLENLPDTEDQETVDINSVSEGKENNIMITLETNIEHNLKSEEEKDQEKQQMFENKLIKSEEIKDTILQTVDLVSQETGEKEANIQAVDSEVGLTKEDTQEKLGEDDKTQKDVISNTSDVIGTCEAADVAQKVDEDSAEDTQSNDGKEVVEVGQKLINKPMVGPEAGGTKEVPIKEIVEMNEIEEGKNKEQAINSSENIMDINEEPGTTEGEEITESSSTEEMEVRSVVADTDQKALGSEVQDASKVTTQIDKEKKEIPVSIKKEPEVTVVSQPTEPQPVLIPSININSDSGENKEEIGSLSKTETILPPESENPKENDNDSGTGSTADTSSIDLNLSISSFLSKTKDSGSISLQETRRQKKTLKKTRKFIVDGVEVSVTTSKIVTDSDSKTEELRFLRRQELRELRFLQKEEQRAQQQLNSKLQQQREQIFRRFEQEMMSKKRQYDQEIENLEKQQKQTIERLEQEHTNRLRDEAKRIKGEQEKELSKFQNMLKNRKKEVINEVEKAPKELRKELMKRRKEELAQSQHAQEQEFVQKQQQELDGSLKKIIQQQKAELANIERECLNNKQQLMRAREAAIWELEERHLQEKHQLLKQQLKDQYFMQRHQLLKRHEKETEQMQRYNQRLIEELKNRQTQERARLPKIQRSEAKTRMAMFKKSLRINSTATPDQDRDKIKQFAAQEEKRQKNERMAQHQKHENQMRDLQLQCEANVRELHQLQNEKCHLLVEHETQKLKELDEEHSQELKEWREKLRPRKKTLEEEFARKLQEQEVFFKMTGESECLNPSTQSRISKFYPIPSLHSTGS
Sequence of Serine/threonine-protein kinase PLK2 (Homo sapiens) (Q9NYY3 whole entry, looked up): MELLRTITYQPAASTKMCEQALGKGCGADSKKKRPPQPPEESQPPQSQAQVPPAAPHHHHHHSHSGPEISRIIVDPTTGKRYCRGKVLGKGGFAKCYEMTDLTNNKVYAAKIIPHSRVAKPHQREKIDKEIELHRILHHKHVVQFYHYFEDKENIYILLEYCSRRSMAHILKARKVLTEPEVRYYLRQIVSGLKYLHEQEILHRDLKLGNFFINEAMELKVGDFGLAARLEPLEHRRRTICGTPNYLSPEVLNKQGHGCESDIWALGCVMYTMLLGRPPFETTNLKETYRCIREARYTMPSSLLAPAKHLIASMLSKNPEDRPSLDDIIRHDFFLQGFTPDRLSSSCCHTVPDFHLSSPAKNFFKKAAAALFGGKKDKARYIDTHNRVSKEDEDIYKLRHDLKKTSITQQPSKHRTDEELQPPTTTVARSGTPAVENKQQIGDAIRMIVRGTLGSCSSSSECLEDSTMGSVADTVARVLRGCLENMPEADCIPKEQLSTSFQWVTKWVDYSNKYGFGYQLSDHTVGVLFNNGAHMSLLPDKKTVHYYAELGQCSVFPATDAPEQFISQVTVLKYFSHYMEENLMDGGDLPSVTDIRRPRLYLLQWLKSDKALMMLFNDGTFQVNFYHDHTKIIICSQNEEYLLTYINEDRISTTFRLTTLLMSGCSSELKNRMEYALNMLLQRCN
Sequence of Platelet-derived growth factor receptor beta (P09619 whole entry): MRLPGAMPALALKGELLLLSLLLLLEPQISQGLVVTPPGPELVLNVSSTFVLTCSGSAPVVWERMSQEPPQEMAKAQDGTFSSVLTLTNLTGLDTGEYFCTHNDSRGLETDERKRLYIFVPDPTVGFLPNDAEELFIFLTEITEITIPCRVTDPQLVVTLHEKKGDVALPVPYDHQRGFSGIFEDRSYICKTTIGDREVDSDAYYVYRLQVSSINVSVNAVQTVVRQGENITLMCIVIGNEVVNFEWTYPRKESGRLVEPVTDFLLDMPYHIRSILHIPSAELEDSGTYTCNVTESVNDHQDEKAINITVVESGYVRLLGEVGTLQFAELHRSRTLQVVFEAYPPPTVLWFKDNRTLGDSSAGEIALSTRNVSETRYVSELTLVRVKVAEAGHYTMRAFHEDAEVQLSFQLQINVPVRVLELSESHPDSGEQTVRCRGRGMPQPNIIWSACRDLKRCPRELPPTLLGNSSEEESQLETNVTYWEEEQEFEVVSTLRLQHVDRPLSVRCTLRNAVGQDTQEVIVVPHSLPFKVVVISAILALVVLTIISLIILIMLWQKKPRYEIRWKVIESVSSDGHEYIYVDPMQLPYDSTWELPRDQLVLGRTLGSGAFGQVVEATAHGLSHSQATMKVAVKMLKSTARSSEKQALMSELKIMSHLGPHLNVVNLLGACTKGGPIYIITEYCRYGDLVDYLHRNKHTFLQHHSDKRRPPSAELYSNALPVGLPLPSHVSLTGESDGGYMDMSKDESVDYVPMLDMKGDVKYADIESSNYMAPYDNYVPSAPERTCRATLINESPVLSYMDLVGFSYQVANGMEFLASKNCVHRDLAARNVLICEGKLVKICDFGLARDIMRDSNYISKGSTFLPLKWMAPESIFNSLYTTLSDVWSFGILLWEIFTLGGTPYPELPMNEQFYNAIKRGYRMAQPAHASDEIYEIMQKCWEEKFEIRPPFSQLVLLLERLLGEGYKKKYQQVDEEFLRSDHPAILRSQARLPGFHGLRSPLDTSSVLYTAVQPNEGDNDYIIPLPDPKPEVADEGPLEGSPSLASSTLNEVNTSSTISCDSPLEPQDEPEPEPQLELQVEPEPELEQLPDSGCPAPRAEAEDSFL
Sequence of Receptor-type tyrosine-protein kinase FLT3 (Homo sapiens) (P36888 whole entry): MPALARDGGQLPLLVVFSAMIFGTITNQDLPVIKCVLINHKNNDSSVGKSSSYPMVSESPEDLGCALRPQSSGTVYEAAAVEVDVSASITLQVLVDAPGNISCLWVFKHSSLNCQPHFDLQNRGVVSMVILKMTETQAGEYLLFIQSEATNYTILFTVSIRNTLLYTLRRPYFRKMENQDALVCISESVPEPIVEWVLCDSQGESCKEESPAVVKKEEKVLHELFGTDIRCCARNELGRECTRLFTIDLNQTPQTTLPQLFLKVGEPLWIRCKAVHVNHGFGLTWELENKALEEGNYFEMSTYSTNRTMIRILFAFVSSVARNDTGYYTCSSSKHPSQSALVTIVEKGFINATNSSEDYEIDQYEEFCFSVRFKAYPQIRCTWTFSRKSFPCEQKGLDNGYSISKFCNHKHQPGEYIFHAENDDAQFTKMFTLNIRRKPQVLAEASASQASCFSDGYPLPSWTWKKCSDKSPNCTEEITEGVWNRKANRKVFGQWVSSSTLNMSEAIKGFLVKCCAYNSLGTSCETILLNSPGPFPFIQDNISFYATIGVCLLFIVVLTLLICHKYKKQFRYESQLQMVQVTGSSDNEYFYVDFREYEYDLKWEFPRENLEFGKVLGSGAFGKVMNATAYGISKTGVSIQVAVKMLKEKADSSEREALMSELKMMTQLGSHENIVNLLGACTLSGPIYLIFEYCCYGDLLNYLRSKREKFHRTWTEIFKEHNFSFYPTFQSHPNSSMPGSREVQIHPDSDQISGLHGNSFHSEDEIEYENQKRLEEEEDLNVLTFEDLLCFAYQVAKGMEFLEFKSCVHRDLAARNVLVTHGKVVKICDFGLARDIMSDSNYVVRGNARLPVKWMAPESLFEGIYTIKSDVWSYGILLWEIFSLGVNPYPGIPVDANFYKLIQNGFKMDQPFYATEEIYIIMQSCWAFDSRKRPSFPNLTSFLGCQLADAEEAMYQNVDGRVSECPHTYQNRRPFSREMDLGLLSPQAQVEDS

Consider `CN(c1ccnc(CNc2nc(Nc3ccc4c(c3)CC(=O)N4)ncc2C(F)(F)F)n1)S(C)(=O)=O` [PF-00911705], for which the % of control was 0.5% in assay [1]; 7.6% in assay [2]; 10% in assay [3]; 7.6% in assay [4]; 3.5% in assay [5].
`CN1C(=O)c2sccc2N(C)c2nc(Nc3ccc(S(N)(=O)=O)cc3)ncc21` gave an IC50 against Aurora kinase B of 0.0194 µM. In assay [6], this compound returned a % of control of 0.05%.
For the compound `CCOc1cn(-c2ccc(F)cc2C)nc1C(=O)Nc1ccc(Oc2ccnc3cc(OC)c(OC)cc23)c(F)c1`, the % of control in assay [7], in [8], in assay [9] and in [10] was below 10% in each case.
Consider `C[C@H](c1ccnc(Nc2nc3ccc(-c4cc(N(C)C)ncn4)cc3[nH]2)c1)N1CCN(C(=O)CC(F)(F)F)CC1` [BAY-985], for which the Kd in [11] was 0.074 µM; in assay [12] it was 0.0096 µM.
Consider `COc1cc2ncn(-c3cc(OCc4ccccc4C(F)(F)F)c(C(N)=O)s3)c2cc1OC` [GW843682X], for which the % of control came out at 1.6% in assay [13]; 0% in [14]; 5.3% in assay [15]; 4.1% in assay [16]; 0.3% in assay [17].
Take `CC[C@@H]1C(=O)N(C)c2cnc(Nc3ccc(C(=O)NC4CCN(C)CC4)cc3OC)nc2N1C1CCCC1`: the % of control came out at 13% in [18]; 56% in assay [19]; 100% in assay [20]; 0.5% in [21]; 3.7% in [22]; 13.8% in [23].
